Reference: patent publication US12410211B2, “V1A receptor partial agonist and method of use” (PharmaIN Corporation, priority 2020, dated 2025)
Read-outs that look alike come from different tables or passages of the source. Marks after values point to notes of the source that are not given here.

Experiments:
[1] = Therapeutic index (NOAEL/NOEL): paleness, lethargy, ataxia observation in Sprague-Dawley rats (Example 7); format: in vivo; conditions: for Paleness (Duration, hrs; SD) / Highest dose with no-observed effect level or paleness (NOEL) / NOAEL/NOEL (therapeutic index) / NOAEL at 24 h: S.C.; for Highest dose with no-observed effect level or paleness (NOEL) / NOAEL/NOEL (therapeutic index) / NOAEL at 24 h / Marked adverse effect (Lowest dose first showed Ataxia) / Mild adverse effect (Lowest dose first showed Lethargy): rat; for NOAEL at 24 h: male, Sprague-Dawley, read-out: Highest dose with no-observed adverse effect level without lethargy (NOAEL); for NOAEL at 24 h / Marked adverse effect (Lowest dose first showed Ataxia) / Mild adverse effect (Lowest dose first showed Lethargy): in vivo, sc
Text: As used herein, the term “therapeutic index” (TI; also referred to as therapeutic ratio) is a quantitative measure of the relative safety of a drug. […] For the purpose of the present application, lethargy is a lack of energy and/or sleepiness which is visually observed in rats as a lack of mobility, such as a lack of mobility even in the presence of human activity. For the purpose of present specification, peripheral vasoconstriction is visually observed by a paleness of the extremities (e.g., skin of hands, feet, ears, and lips). In rats, peripheral vasoconstriction is determined by a side-by-side comparison of ear paleness in treated subjects (e.g., Sprague Dawley rats, a white rat with easily visualizable changes in redness/paleness) vs. untreated control subjects. The V1a agonist (or partial agonist) with a high therapeutic index will have a better safety profile than that with a low therapeutic index by providing a wider margin of safety for dosing during the treatment of the disease. This NOAEL/NOEL ratio, being a quantitative measure of the relative safety, is a comparison of the amount of a therapeutic agent that causes the therapeutic effect (useful effect, vasoconstriction for the purpose of the present specification) to the amount that causes toxicity. A V1a agonist that causes severe vasoconstriction will affect not only the peripheral vessels, with several layer of smooth muscles, but also other vessels present in other organs (e.g., heart, lungs, kidney, brain) and this will result in observed lethargy and eventually ataxia. A partial agonist is less likely to reach such an extreme level of vasoconstriction and is believed to have a higher therapeutic index.
In this study, 8 to 10 weeks male Sprague-Dawley rats (Charles River; Wilmington, MA) under isoflurane anesthesia (n=3 or 6) were intravenously (IV) or subcutaneously (SC) injected or administered with various test articles. Prior to administration of test articles, the injection area was clipped free of fur, to allow for clear visualization of the dose site, and animal weight was measured and recorded. Animals were housed two per cage. […] Lethargy is when the animal eyes cannot fully open and is associated deep breathing and limited of movement even in the presence of human.

V1a receptor = biological target: T1, V1a receptor (Homo sapiens, UniProt P37288); assay: V1a Human Vasopressin GPCR Cell Based Agonist Calcium Flux Assay; conditions: for Emax: read-out: V1a Highest agonist effect (% of AVP)
T1 construct: host or cells: CHO cells
Protocol: Peptides of Formula (I) include Mpa-Tyr-Phe-Hgn-Asn-Cys-Pro-Lys(X)a-Gly-NH2 [SEQ ID NO. 24]; where (X)a is a peptide with “a” residues and each residue X is independently selected from Gly, and a D- or L-amino acid version of Ala, Lys, Orn, Glu, and Asp, where “a” is 0-10. V1a Human Vasopressin GPCR Cell Based Agonist Calcium Flux Assay were conducted at Eurofins Cerep SA (France) on a fee for service basis. Human recombinant CHO cells expressing human V1 receptors were distributed in microplates. Intracellular calcium signal was detected by fluorimetry, and the signal was acquired before and after addition of a known agonist concentration. The following agonist concentrations were tested (nM); 0.0128, 0.064, 0.32, 1.6, 8, 40, 200, and 1,000. […] All assays were performed in duplicate. Changes in fluorescence intensity reflected changes in the concentration of free cytosolic calcium. […] The half-maximal effective concentration (EC50) was determined by a non-linear regression analysis of the concentration-response curves generated with mean replicate values using Hill equation curve fitting (Cerep, I'Evescault, France).
V1a Human Vasopressin GPCR Cell Based Agonist Calcium Flux Assay were conducted using human recombinant CHO cells expressing human V1 receptor. Briefly, human recombinant CHO cells expressing human V1 receptor were distributed in microplates at 4.5×10^4 cells/well. The fluorescent probe (Fluo4 Direct, Invitrogen) mixed with probenicid in HBSS buffer (Invitrogen) complemented with 20 mM HEPES (Invitrogen) (pH 7.4) is then added into each well and equilibrated with the cells for 60 min at 37° C. then 15 min at 22° C. Thereafter, the assay plates are positioned in a microplate reader (CellLux, PerkinElmer) which is used for the addition of the test compound, reference agonist or HBSS buffer (basal control), and the measurements of changes in fluorescence intensity which varies proportionally to the free cytosolic Ca^2+ ion concentration. The following agonist concentrations were tested (nM), 0.0128, 0.064, 0.32, 1.6, 8, 40, 200, and 1,000. […] All assays were performed in duplicate. Changes in fluorescence intensity reflected changes in the concentration of free cytosolic calcium. […] Referring to FIG. 3 and Table 4, the half-maximal effective concentration (EC50) was determined by non-linear regression analysis of the concentration-response curves generated with mean replicate values using Hill equation curve fitting (Cerep, I'Evescault, France).

[2] = at the Marked adverse effect dose
[3] = at the Mild adverse effect dose
[4] = Table 3, CHO cells expressing human V1 receptor, read-out: Estimated V1a EC50 (nM), n = 2

T1 sequence (P37288 whole entry): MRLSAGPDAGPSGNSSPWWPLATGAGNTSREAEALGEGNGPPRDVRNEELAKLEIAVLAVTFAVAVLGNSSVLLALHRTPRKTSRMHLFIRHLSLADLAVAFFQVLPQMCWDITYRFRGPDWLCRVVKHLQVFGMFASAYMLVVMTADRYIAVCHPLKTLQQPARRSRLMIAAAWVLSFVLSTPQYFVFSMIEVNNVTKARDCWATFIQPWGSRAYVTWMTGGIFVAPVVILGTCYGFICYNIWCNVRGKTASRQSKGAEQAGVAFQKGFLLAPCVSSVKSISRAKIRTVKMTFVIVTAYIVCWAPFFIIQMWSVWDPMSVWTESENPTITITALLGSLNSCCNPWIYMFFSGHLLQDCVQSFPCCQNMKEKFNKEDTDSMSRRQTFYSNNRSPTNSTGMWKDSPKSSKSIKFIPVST

Row | Structure (SMILES) | Paleness (Duration, hrs; SD) [1, 2] | Paleness (Duration, hrs; SD) [1, 3] | Paleness (Duration, hrs; SD) ([1]; at the NOAEL dose) | Paleness (Duration, hrs; SD) ([1]; at the NOEL dose) | Highest dose with no-observed effect level or paleness (NOEL) [1] | NOAEL/NOEL (therapeutic index) [1] | NOAEL at 24 h [1] | Marked adverse effect (Lowest dose first showed Ataxia) [1] | Mild adverse effect (Lowest dose first showed Lethargy) [1] | EC50 (V1a receptor; [4]) | Emax (V1a receptor; Table 3, n = 2) | EC50 (V1a receptor; FIG. 2 / FIG. 3 legend, n=2, read-out: EC50 for V1a receptor)
1 | NCC(=O)NCCCC[C@H](NC(=O)[C@@H]1CCCN1C(=O)[C@@H]1CSSCCC(=O)N[C@@H](Cc2ccc(O)cc2)C(=O)N[C@@H](Cc2ccccc2)C(=O)N[C@@H](CCCC(N)=O)C(=O)N[C@@H](CC(N)=O)C(=O)N1)C(=O)NCC(N)=O [SEQ ID NO. 8, Mpa-Tyr-Phe-Hgn-Asn-Cys-Pro-Lys(X)-Gly-NH2; X = Gly] | (>6.12)* hrs | (>6.12)* hrs | (6.20 ± 0.28) hrs | None Observed | 0.0015 mg/kg | 10 | 0.15 mg/kg | 1.5 mg/kg | 0.5 mg/kg | 25.3 nM | 40.3% | 
2 | NCC(=O)NCC(=O)NCCCC[C@H](NC(=O)[C@@H]1CCCN1C(=O)[C@@H]1CSSCCC(=O)N[C@@H](Cc2ccc(O)cc2)C(=O)N[C@@H](Cc2ccccc2)C(=O)N[C@@H](CCCC(N)=O)C(=O)N[C@@H](CC(N)=O)C(=O)N1)C(=O)NCC(N)=O [SEQ ID NO. 9, Mpa-Tyr-Phe-Hgn-Asn-Cys-Pro-Lys(X)a-Gly-NH2; (X)a = (Gly)2] | (>5.99)* hrs | (>6.04)* hrs | (5.74 ± 0.45) hrs | None Observed | 0.0015 mg/kg | 100 | 0.15 mg/kg | 1.5 mg/kg | 0.5 mg/kg | 38.2 nM | 37% | 
3 | NCC(=O)NCC(=O)NCC(=O)NCCCC[C@H](NC(=O)[C@@H]1CCCN1C(=O)[C@@H]1CSSCCC(=O)N[C@@H](Cc2ccc(O)cc2)C(=O)N[C@@H](Cc2ccccc2)C(=O)N[C@@H](CCCC(N)=O)C(=O)N[C@@H](CC(N)=O)C(=O)N1)C(=O)NCC(N)=O [SEQ ID NO. 10, Mpa-Tyr-Phe-Hgn-Asn-Cys-Pro-Lys(X)a-Gly-NH2; (X)a = (Gly)3] | (6.4 ± 0.07) hrs | (6.27 ± 0.13) hrs | (5.65 ± 0.4) hrs | None observed | 0.0015 mg/kg | 100 | 0.15 mg/kg | 1.5 mg/kg | 0.5 mg/kg |  | 32.9% | 53.5 nM
4 | NCC(=O)NCC(=O)NCC(=O)NCC(=O)NCCCC[C@H](NC(=O)[C@@H]1CCCN1C(=O)[C@@H]1CSSCCC(=O)N[C@@H](Cc2ccc(O)cc2)C(=O)N[C@@H](Cc2ccccc2)C(=O)N[C@@H](CCCC(N)=O)C(=O)N[C@@H](CC(N)=O)C(=O)N1)C(=O)NCC(N)=O [SEQ ID NO. 11, Mpa-Tyr-Phe-Hgn-Asn-Cys-Pro-Lys(X)a-Gly-NH2; (X)a = (Gly)4] | (>6.93)* hrs | (>6.85)* hrs | (6.02 ± 0.06) hrs | None Observed | 0.0015 mg/kg | 100 | 0.15 mg/kg | 1.5 mg/kg | 0.5 mg/kg | 161 nM | 33.6% | 
